Results taken from ChEMBL document CHEMBL3870355, “Biological Evaluation in Vitro and in Silico of Azetidin-2-one Derivatives as Potential Anticancer Agents” (ACS Med Chem Lett, 2017).
Activity calls are given as the source filed them. No cut-off for these calls is given here.

How the values were obtained:
[1] = Cytotoxicity against human SiHa cells by MTT assay; assay type: functional, cell-based
[2] = Cytotoxicity against mouse B16F10 cells by MTT assay; assay type: functional, cell-based; conditions: B16-F10
[3] = Cytotoxicity against human Chang cells by MTT assay; assay type: toxicity, cell-based
B16-F10 [4] = test: Induction of apoptosis in mouse B16F10 cells assessed as caspase-3 activation using Ac-DEVD-pNA as substrate by spectrophotometric analysis; assay type: functional
B16-F10 [5] = test: Induction of apoptosis in mouse B16F10 cells assessed as formation of organized shedding vesicles by microscopic analysis; assay type: functional, cell-based
B16-F10 [6] = test: Effect on tubulin gene expression in mouse B16F10 cells by GenArise analysis; assay type: functional, cell-based
B16-F10 [7] = test: Induction of changes in cell death related gene expression in mouse B16F10 cells by GenArise analysis; assay type: functional, cell-based
B16-F10 [8] = test: Induction of changes in cytoskeleton and cell division processes related gene expression in mouse B16F10 cells by GenArise analysis; assay type: functional, cell-based

Row | Compound | IC50 [1] [nM] | IC50 [2] [nM] | IC50 [3] [nM] | Activity (B16-F10 [4]) [%] | Activity (B16-F10 [5]) | Activity (B16-F10 [6]) | Activity (B16-F10 [7]) | Activity (B16-F10 [8])
1 | COc1ccc(N2C(=O)[C@@H](Oc3ccccc3)[C@H]2c2ccccc2[N+](=O)[O-])cc1 | 220 | 4820 | 3730 | – | – | – | – | –
2 | O=C1C(Oc2ccccc2)C(c2ccncc2)N1c1nc2ccccc2s1 (racemic) | 1340 | 1700 | 1030 | – | – | – | – | –
3 | O=C1C(Oc2ccccc2)C(c2ccco2)N1c1nc2ccccc2s1 (racemic) | 330 | 340 | 17 | 93 | – | – | – | –
4 | O=C1C(Oc2ccccc2)C(c2ccc(Cl)cc2)N1c1nc2ccccc2s1 (racemic) | 90 | 310 | 230 | – | – | – | – | –
5 | O=C1C(Oc2ccccc2)C(c2ccc([N+](=O)[O-])cc2)N1c1nc2ccccc2s1 (racemic) | 120 | 450 | 70 | – | – | – | – | –
6 | COc1ccc(N2C(=O)[C@@H](Oc3ccccc3)[C@H]2c2ccc(C)cc2)cc1 (relative stereo) | 70 | 1210 | > 10000 | 100 | Active | Active | Active | Active
7 | COc1ccc(N2C(=O)[C@@H](OC)[C@H]2c2ccc([N+](=O)[O-])cc2)cc1 (relative stereo) | 8130 | 2080 | > 10000 | 88 | – | – | – | –
8 | COc1ccc(N2C(=O)[C@@H](OC)[C@H]2c2ccccc2[N+](=O)[O-])cc1 (relative stereo) | 7290 | 2910 | 9750 | – | – | – | – | –
9 | COc1ccc(N2C(=O)[C@@H](OC)[C@H]2c2ccc(C)cc2)cc1 (relative stereo) | 730 | 4120 | 3920 | – | – | – | – | –
10 | COc1ccc([C@@H]2[C@H](OC)C(=O)N2c2ccc(OC)cc2)cc1 (relative stereo) | 6360 | 2050 | 8380 | – | – | – | – | –
11 | COc1ccc([C@@H]2[C@H](Oc3ccccc3)C(=O)N2c2ccc(OC)cc2)cc1 (relative stereo) | 420 | 9700 | 630 | – | – | – | – | –
12 | COc1ccc(N2C(=O)[C@@H](OC)[C@H]2c2ccc(Cl)cc2)cc1 (relative stereo) | 8610 | > 10000 | 3410 | – | – | – | – | –
13 | COc1ccc(N2C(=O)[C@@H](Oc3ccccc3)[C@H]2c2ccc([N+](=O)[O-])cc2)cc1 (relative stereo) | 3640 | 870 | 2080 | – | – | – | – | –
14 | COc1ccc(N2C(=O)[C@@H](OC)[C@H]2c2ccc(F)cc2)cc1 (relative stereo) | 2890 | 2820 | 7570 | – | – | – | – | –
15 | COc1ccc(N2C(=O)[C@@H](Oc3ccccc3)[C@H]2c2ccc(F)cc2)cc1 (relative stereo) | 80 | 3260 | 740 | – | – | – | – | –
16 | COc1ccc(N2C(=O)[C@@H](Oc3ccccc3)[C@H]2c2ccccc2)cc1 (relative stereo) | 200 | 280 | 2850 | – | – | – | – | –
17 | COc1cc([C@@H]2c3cc4c(cc3[C@H](O)[C@H]3COC(=O)[C@H]23)OCO4)cc(OC)c1OC [PODOFILOX] | – | – | – | 100 | Active | – | – | –
18 | CC[C@]1(O)C[C@H]2CN(CCc3c([nH]c4ccccc34)[C@@](C(=O)OC)(c3cc4c(cc3OC)N(C=O)[C@H]3[C@@](O)(C(=O)OC)[C@H](OC(C)=O)[C@]5(CC)C=CCN6CC[C@]43[C@@H]65)C2)C1 [VINCRISTINE] | 10 | 10 | 10 | – | – | – | – | –
